Experimental findings from US7740831B2, “Compositions for potentiating glutathione” (Fancl Corporation, priority 2001, dated 2010) are described below.

Data set [1] concerns CCD 1059 normal human skin fibroblasts. The data set is described as follows: Measurement of glutathione activity (intracellular glutathione, method of Baker et al.). The format is cell-based. The settings on record: 24 hours. As for the experimental part: The cells were then collected after being cultured for 24 hours. […] The collected cells were disrupted using sonication, and proteins were removed using metaphosphoric acid. Then, the solutions were again neutralized, to thereby produce samples used for glutathione measurement. The measurement of glutathione was performed using the method of Baker et al. (Anal. […] Then, the absorbance at 405 nm was measured, and this was taken as the glutathione concentration.

Data set [2] shares this test system. The data set is described as follows: Effect of combined use of S-containing compound (cysteine) on intracellular glutathione. The format is cell-based. The settings on record: compound 2.5 μg/ml, control = cysteine only.
Experimental: CCD 1059 normal human skin fibroblasts (1.5×10^5 cells) (manufactured by Dainippon Pharmaceutical Co., Ltd.) were inoculated in a petri dish (manufactured by Nunc) with a diameter of 6 cm, and the cells were cultured in Dulbecco's modified Eagle's medium (DMEM) containing 10% deactivated fetal bovine serum (hereafter abbreviated to “FBS”) for 3 days at 37° C. in the presence of 5% carbon dioxide gas. When the cells were 80% confluent, the medium was exchanged with DMEM containing 0.5% fetal bovine serum (hereafter abbreviated to “FBS” in some cases). After the cells were naturalized for 24 hours, the culture medium was removed by suction and exchanged with fresh DMEM containing 0.5% FBS and the test substances were dissolved in ethanol. […] The cells were then collected after being cultured for 24 hours. […] The collected cells were disrupted using sonication, and proteins were removed using metaphosphoric acid. Then, the solutions were again neutralized, to thereby produce samples used for glutathione measurement. […] To describe the method briefly, reduced nicotinamide adenine dinucleotide phosphate (NADPH), glutathione reductase, and 5,5′-dithiobis(2-nitrobenzoic acid) (DNTB) provided as a coloring agent were added to a 2-(N-morpholino)ethanesulfonate buffer (MES buffer), and the mixture was reacted with each measurement sample or a standard substance used to produce a calibration curve. Then, the absorbance at 405 nm was measured, and this was taken as the glutathione concentration.
However, since it was desired to add an S-containing compound at an arbitrary concentration, the culture medium used in the case of this addition was DMEM that contains no S-containing compound (i.e., a medium that was free of methionine, cysteine, or cystine). […] A comparison was made by calculation from the ratio relative to respective control groups in which only cysteine was added in the same amounts (groups in which only cysteine was added were taken as control groups in which the respective final concentrations of cysteine were 200 and 400 μM, and the activities of the respective test substance groups were evaluated as ratios relative to the control groups with the activities of the respective control groups taken as 1).
The test system is the same in data set [3]. Kind of data set: Effect of combined use of S-containing compound (cystine) on intracellular glutathione. The format is cell-based. The settings on record: compound 10 μg/ml, control = cystine only.
Experimental: CCD 1059 normal human skin fibroblasts (1.5×10^5 cells) (manufactured by Dainippon Pharmaceutical Co., Ltd.) were inoculated in a petri dish (manufactured by Nunc) with a diameter of 6 cm, and the cells were cultured in Dulbecco's modified Eagle's medium (DMEM) containing 10% deactivated fetal bovine serum (hereafter abbreviated to “FBS”) for 3 days at 37° C. in the presence of 5% carbon dioxide gas. When the cells were 80% confluent, the medium was exchanged with DMEM containing 0.5% fetal bovine serum (hereafter abbreviated to “FBS” in some cases). […] Then, the absorbance at 405 nm was measured, and this was taken as the glutathione concentration.
However, since it was desired to add an S-containing compound at an arbitrary concentration, the culture medium used in the case of this addition was DMEM that contains no S-containing compound (i.e., a medium that was free of methionine, cysteine, and cystine). […] A comparison was made by calculation from the ratio relative to respective control groups in which only cystine was added (groups in which only cystine was added were taken as control groups, and the activities of the respective test substance groups were evaluated as ratios relative to the control groups with the activities of the respective control groups taken as 1).
Data set [4] relates to Clone 9 human liver cells. Kind of data set: Effect on liver cell (intracellular glutathione). The settings on record: compound 10 μg/ml, 24 hours. As for the experimental part: Clone 9 human liver cells (8×10^6 cells) (manufactured by Dainippon Pharmaceutical Co., Ltd.) were inoculated in a petri dish (manufactured by Nunc) with a diameter of 6 cm, and the cells were cultured in DMEM containing 10% deactivated FBS for 3 days at 37° C. in the presence of 5% carbon dioxide gas. When the cells were 80% confluent, the medium was exchanged with DMEM containing 0.5% FBS. After the cells were naturalized for 24 hours, the culture medium was removed by suction and exchanged with fresh DMEM containing 0.5% FBS, and the test substances were dissolved in ethanol. […] 24 hours after the addition, the cells were collected, and glutathione measurements were performed by the method described in Example 5.

Data set [5] relates to CCD 1059 normal human skin fibroblasts. The data set is described as follows: Resistance to active oxygen (singlet oxygen, rose bengal) cell damage after glutathione potentiation. The format is cell-based. The settings on record: compound 20 μg/ml, 24 h preincubation then removed; singlet oxygen exposure; untreated control 28. The method, then: Then, preincubation was performed for 24 hours at 37° C., so that the intracellular glutathione concentration was increased. […] The present test was performed in order to evaluate whether it was possible to alleviate the effects of the active oxygen that was generated by increasing the intracellular glutathione concentration, so that the plants, hydrolysates thereof, DPE, and DPE glycosides discovered by the present invention were completely removed after the preincubation.
After the cells were washed, rose bengal (which is a singlet oxygen generating agent) was dissolved in Hanks solution so as to have a final concentration of 50 μM, and was added to the cells. The cells were then irradiated for 10 minutes with visible light, so that the cells were exposed to singlet oxygen. The time for which the cells were immersed in Hanks solution and the time for which the cells were exposed to visible light were the same for all of the groups. After the exposure, the cells were again washed with Hanks solution, and the culture medium was exchanged with DMEM containing 10% FBS. After 3 days, the cells were counted by means of a Coulter counter, and the numbers of living cells were compared. In this comparison, an evaluation was performed with the number of cells in a non-exposed group that was not exposed to singlet oxygen taken as 100%. It is seen from Table 6 that the survival rates of the respective groups exposed to singlet oxygen were improved (compared to a group that was not treated with any test substance (control)) by the addition of the above-mentioned plant extracts, hydrolysates thereof, DPE, and DPE glycosides.

The test system of another data set is B16 melanoma cells. The data set is described as follows: Skin whitening test (melanin suppression). Type of data set: cell-based, mouse. The settings on record: 3 days; for Melanin suppression rate (compound): 20 μg/ml; for Melanin suppression rate (positive control): 3 mM. As for the experimental part:
Melanin suppressing activity was measured by the following test using the extracts of Lamium album, Euphrasia officinalis, Plantago psyllium, Plantago psyllium seeds, Olea europaea, Forsythia suspensa, Conandron ramondioides Siebold et Zucc, Osmanthus fragrans, Osmanthus asiaticus, Syringa vulgaris, Verbena officinalis L., and Momordica charantia L., and hydrolysates thereof obtained in Example 1, DPE obtained in Examples 3 and 4, and the DPE glycosides obtained in Example 5.
Cultured B16 melanoma cells derived from mouse provided as melanin producing cells were cultured in a minimum basic culture medium (MEM) to which FBS was added so as to have a final concentration of 10%. At a concentration of 3×10^3 cell/ml, those cells were inoculated in a 6-well plate (6 ml in each well), and were cultured in a CO2 incubator for 5 days, after which the culture medium was exchanged. […] Then, after further culturing for 3 days under the same conditions, the cells were washed and stripped by a scraper treatment. The cells were then solubilized with sodium dodecylsulfate (SDS), and the absorbance values at 475 nm and 260 nm were measured (these values were taken as S475 and S260). The melanin suppression rate was calculated using the following Equation 1, with the absorbance values at 475 nm and 260 nm obtained for cells cultured in a culture medium to which no test substances were added taken as C475 and C260, respectively. 3 mM vitamin C and 3 mM kojic acid were used as positive controls. As is shown in Tables 7 and 8, the production of melanin is suppressed by the addition of the test substances, so that the test substances show a skin whitening effect.

Data set [6] deals with cystine transporter (xCT). Kind of data set: Cystine transporter (xCT) production ability by Western blotting. Type of data set: cell-based, human. The settings on record: compound 20 μg/ml, 24 hours. From the text:
When the cells were 80% confluent, the medium was exchanged with DMEM containing 0.5% FBS.
In general terms: Immunoblotting shows a protein as a band on a membrane.

Data set [7] relates to gamma-glutamyl cysteine synthetase mRNA. Kind of data set: γ-glutamylcysteine synthetase production promoting activity by RT-PCR. The format is cell-based, human. The settings on record: compound 20 μg/ml, 8 hours. As for the experimental part:
After 8 hours, total RNA was collected by using TRIZOL reagent (Life Technologies Oriental, Inc.) following a protocol.
Gamma-glutamyl cysteine synthetase mRNA and G3PDH mRNA expression promoting activities were measured with RT-PCR high (Toyobo Co., Ltd.) using the collected total RNA. The G3PDH gene is known as a housekeeping gene and expresses in all cells constantly, so that the gene is widely used as a control gene. The following primers were used for PCR: 5′-TGA AAC TCT GCA AGA GAA GOG G-3′ (SEQ ID NO: 1) and 5′-GCT TCA TCT GGA AAG AGO AGG G -3′ (SEQ ID NO: 2) (gamma-glutamyl cysteine synthetase); and 5′-ACCACAGTCCATGCCATCAC-3′ (SEQ ID NO: 3) and 5′-TCCACCACCCTGTTGCTGTA-3′ (SEQ ID NO: 4) (G3PDH). […] Then, the intensity of staining was measured using image analysis software ImageMaster 1D (manufactured by Amersham Pharmacia Biotech Co.). The group in which no test substances were added (1% ethanol) was taken as a control, and the amount of expression was evaluated by a comparison of the amounts of expression in cases where test substances were added (with a value obtained by dividing the staining intensity of the γ-glutamylcysteine synthetase mRNA by the staining intensity of G3PDH taken as 1). […]

The subject of another data set is rats. Kind of data set: Long-term oral administration to rats (toxicity). The format is in vivo. The settings on record: 100 days, 1,000 mg/kg per day. From the text:
DPE or a glycoside thereof has a low toxicity.

As to `OCCc1ccc(O)c(O[C@@H]2O[C@H](CO)[C@@H](O)[C@H](O)[C@H]2O)c1` [DPE-3′-O-β-D-Glucopyranocide, 2-(3,4-dihydroxyphenyl)ethanol-3′-O-β-D-glucopyranocide], the “Glutathione enhancing activity (compound), ratio to control” value was 1.15 in [1] (2.5 μg/ml), 1.19 in data set [1] (5 μg/ml), 1.25 in data set [1] (10 μg/ml) and 1.73 in data set [1] (20 μg/ml). Also, the “Combined effect with cysteine, ratio to control, cysteine 200 μM added group” value in [2] turned out to be 1.26. For the same compound, in [2], the “Combined effect with cysteine, ratio to control, cysteine 400 μM added group” value amounted to 1.52. Further, the “Combined effect with cystine, ratio to control, cystine 200 μM added group” value in data set [3] turned out to be 1.56. In addition, the “Effect on hepatocyte (glutathione), ratio to control” value in data set [4] stood at 1.26. The “Survival rate (%: based on non-exposed group)” value in [5] is 46%. Moreover, the “Melanin suppression rate (compound)” value in the data set with B16 melanoma cells is 32.3%. Further, the “Amount of xCT expression (Relative to control)” value in [6] worked out at 1.3. Also, the “Gamma-glutamyl cysteine synthetase/G3PDH (Relative to control)” value in [7] is 3.8.

As for `OCCc1ccc(O[C@@H]2O[C@H](CO)[C@@H](O)[C@H](O)[C@H]2O)c(O)c1` [DPE-4′-O-β-D-Glucopyranocide, 2-(3,4-dihydroxyphenyl)ethanol-4′-O-β-D-glucopyranocide], in data set [5], the “Survival rate (%: based on non-exposed group)” value is recorded as 37%. For the same compound, in the data set on B16 melanoma cells, the “Melanin suppression rate (compound)” value stood at 35.4%.

Turning to `OCCc1ccc(O)c(O)c1` [DPE, 2-(3,4-dihydroxyphenyl)ethanol], the “Glutathione enhancing activity (compound), ratio to control” value is 1.36 in data set [1] (2.5 μg/ml), 1.85 in data set [1] (5 μg/ml), 2.33 in data set [1] (10 μg/ml) and 2.74 in [1] (20 μg/ml). Also, in data set [2], the “Combined effect with cysteine, ratio to control, cysteine 200 μM added group” value is reported as 1.25. For the same compound, in data set [2], the “Combined effect with cysteine, ratio to control, cysteine 400 μM added group” value was found to be 1.89. In addition, the “Combined effect with cystine, ratio to control, cystine 200 μM added group” value in [3] is listed as 3.42. Further, the “Effect on hepatocyte (glutathione), ratio to control” value in data set [4] turned out to be 1.16. Also, the “Survival rate (%: based on non-exposed group)” value in data set [5] came out at 61%. Further, in the data set with B16 melanoma cells, the “Melanin suppression rate (compound)” value is 52.3%. Further, in data set [6], the “Amount of xCT expression (Relative to control)” value is 4.8. Also, in [7], the “Gamma-glutamyl cysteine synthetase/G3PDH (Relative to control)” value worked out at 8.2. Also, the Mortality result in the data set with rats is given as “no cases of mortality”.

As to `O=C1O[C@H]([C@@H](O)CO)C(O)=C1O` [Vitamin C, reference compound], the “Melanin suppression rate (positive control)” value in the data set with B16 melanoma cells was 23.0%.

For the compound `O=c1cc(CO)occ1O` [Kojic acid, reference compound], in the data set with B16 melanoma cells, the “Melanin suppression rate (positive control)” value is recorded as 39.9%.

In the case of `OC[C@H]1O[C@@H](OCCc2ccc(O)c(O)c2)[C@H](O)[C@@H](O)[C@@H]1O` [DPE-1-O-β-D-Glucopyranocide, 2-(3,4-dihydroxyphenyl)ethanol-1-O-β-D-glucopyranocide], the “Survival rate (%: based on non-exposed group)” value in data set [5] worked out at 42%. In addition, the “Melanin suppression rate (compound)” value in the data set with B16 melanoma cells was determined as 24.6%.
